Measured values as given in US20150045391A1, “FILANESIB COMBINED WITH POMALIDOMIDE DISPLAYS ENHANCED ANTI-TUMOR ACTIVITY” (Array BioPharma Inc., priority 2013, published 2015).

Key:
H929 xenografts = assay: H929 xenograft tumor growth inhibition (Example 2); format: in vivo, mice; details: for % Complete Response: SCID-beige mice, filanesib 12.5 mg/kg IP days 1 and 2, pomalidomide 10 mg/kg IP QD days 1-21, no palpable tumor for 2 consecutive measurements; for % Max Body Weight Loss: filanesib 12.5 mg/kg IP days 1 and 2, pomalidomide 10 mg/kg IP QD days 1-21
Method: (§1) Female SCID-beige mice were inoculated subcutaneously with 10×10^6 H929 (FIG. 2), RPMI-8226 (FIG. 3) or JJN3 (FIG. 4) tumor cells in 50% 1× phosphate buffered saline (“PBS”) 50% Matrigel™ (100 μL). […] Tumor size and animal body weight were measured on the days indicated in FIGS. 2-4 over the course of each study. Tumor volume was calculated using the formula, volume=[…]. Percent complete response indicates an animal has no palapable tumor for 2 consecutive measurements.

JJN3 xenografts = assay: JJN3 xenograft tumor growth inhibition (Example 2); format: in vivo, mice; details: for % Complete Response: SCID-beige mice, filanesib 12.5 mg/kg IP days 1 and 2, pomalidomide 10 mg/kg IP QD days 1-19, no palpable tumor for 2 consecutive measurements; for % Max Body Weight Loss: filanesib 12.5 mg/kg IP days 1 and 2, pomalidomide 10 mg/kg IP QD days 1-19
Method: as §1

[1] = Hematology profiles and body weight in naive CD-1 mice (Example 3); format: in vivo; details: for neutropenia / neutrophil loss, in words: hematology analysis in mice
Method: Naïve male CD-1 mice were administered saline vehicle (10 mL/kg, IP, days 1 and 2), filanesib (12.5 mg/kg, IP, days 1 and 2) and/or pomalidomide (1 or 10 mg/kg, IP, QD, days 1-14). Hematology parameters (platelets FIG. 5, lymphocytes FIG. 6, neutrophils FIG. 7) were measured on days 5 and 12, and animal body weight (FIG. 8) was measured on days 1, 3, 5, 8, 10 and 12. For hematology analysis, blood was collected 12 hours following the final dose via cardiac puncture, […] was prepared, and hematology profiles were measured on Hemavet 950FS analyzer.

[2] = Plasma exposure after a single IP dose of filanesib and/or pomalidomide (Example 1); format: in vivo; details: mouse, male CD-1 mice
Method: Naïve male CD-1 mice were administered a single intraperitoneal (“IP”) bolus dose of filanesib (12.5 mg/kg) and/or pomalidomide (10 mg/kg). Blood was collected at 4, 8, 12, 16, 20 and 24 hours via cardiac puncture, ethylenediaminetetraacetic acid (“EDTA”) plasma was prepared, and concentration of plasma analytes were measured.

RPMI-8226 xenografts [3] = assay: RPMI-8226 xenograft tumor growth inhibition (Example 2); format: in vivo, mice; details: for % Complete Response / % Max Body Weight Loss: RPMI-8226, filanesib 12.5 mg/kg IP days 1 and 2, pomalidomide 10 mg/kg IP QD days 1-21; for % Complete Response: SCID-beige mice, no palpable tumor for 2 consecutive measurements; for cure rate: RPMI-8226 model, filanesib 12.5 mg/kg IP D1, 2, pomalidomide 10 mg/kg IP QD, cure = no palpable tumor 100 days from study initiation
Method: as §1

RPMI-8226 xenografts [4] = assay: RPMI-8226 dose ranging xenograft (Example 4); format: in vivo, mice; details: for % Cure Rate: no palpable tumor 158 days from study start
Method: Female SCID-Beige mice were inoculated subcutaneously with 10×10^6 RPMI-8226 tumor cells in 50% 1×PBS 50% Matrigel™ (100 μL). […] Tumor size and animal body weight were measured on the indicated days over the course of each study. Tumor volume was calculated using the formula, volume=[…]. Percent cure rate indicates an animal has no palpable tumor 158 days from study start.

[5] = Dose limiting toxicity of filanesib; details: in vivo
[6] = Predicted in vitro IC50 of filanesib
[7] = Day 5, filanesib 12.5 mg/kg IP days 1 and 2 and/or pomalidomide 1 mg/kg IP QD days 1-14
[8] = Day 5, pomalidomide 10 mg/kg IP QD days 1-14, alone or with filanesib 12.5 mg/kg IP days 1 and 2
[9] = Day 12, filanesib 12.5 mg/kg IP days 1 and 2 and/or pomalidomide 1 mg/kg IP QD days 1-14
[10] = Day 12, pomalidomide 10 mg/kg IP QD days 1-14, alone or with filanesib 12.5 mg/kg IP days 1 and 2
[11] = filanesib 12.5 mg/kg IP days 1 and 2 and/or pomalidomide 1 mg/kg IP QD days 1-14
[12] = pomalidomide in plasma, single IP bolus pomalidomide 10 mg/kg alone or with filanesib 12.5 mg/kg
[13] = filanesib 7.5 mg/kg IP days 1 and 2 and/or pomalidomide 5 mg/kg IP QD days 1-21
[14] = filanesib 12.5 mg/kg IP days 1 and 2 and/or pomalidomide 10 mg/kg IP QD days 1-21
[15] = filanesib in plasma, single IP bolus filanesib 12.5 mg/kg alone or with pomalidomide 10 mg/kg

| SMILES | % Complete Response (H929 xenografts) | % Max Body Weight Loss (H929 xenografts) | % Complete Response (JJN3 xenografts) | % Max Body Weight Loss (JJN3 xenografts) | % Decrease in Cell Counts from Vehicle, Lymphocytes [1, 7] | % Decrease in Cell Counts from Vehicle, Neutrophils [1, 7] | % Decrease in Cell Counts from Vehicle, Platelets [1, 7] | % Decrease in Cell Counts from Vehicle, Lymphocytes [1, 9] | % Decrease in Cell Counts from Vehicle, Neutrophils [1, 9] | % Decrease in Cell Counts from Vehicle, Platelets [1, 9] | % Max Body Weight Loss [1, 11] | neutropenia / neutrophil loss, in words [1] | % Complete Response (RPMI-8226 xenografts [3]) | % Max Body Weight Loss (RPMI-8226 xenografts [3]) | cure rate (RPMI-8226 xenografts [3]) | % Max Body Weight Loss (RPMI-8226 xenografts [4]; [13]) | % Cure Rate (RPMI-8226 xenografts [4]; [13]) | % Max Body Weight Loss (RPMI-8226 xenografts [4]; [14]) | % Cure Rate (RPMI-8226 xenografts [4]; [14]) | also measured |
| --- | --- | --- | --- | --- | --- | --- | --- | --- | --- | --- | --- | --- | --- | --- | --- | --- | --- | --- | --- | --- |
| Nc1cccc2c1C(=O)N(C1CCC(=O)NC1=O)C2=O (centres unmarked) [pomalidomide] | 28.5% | 4.4% | 0% | 0% | 9% | 27% | 8% | 0% | 0% | 0% | 0% | caused neutropenia | 12.5% | 0.9% | 0% | 0.5% | 0% | 1.4% | 0% | % Decrease in Cell Counts from Vehicle, Lymphocytes [1, 8]: 4%; % Decrease in Cell Counts from Vehicle, Neutrophils [1, 8]: 21%; % Decrease in Cell Counts from Vehicle, Platelets [1, 8]: 10%; % Decrease in Cell Counts from Vehicle, Lymphocytes [1, 10]: 0%; % Decrease in Cell Counts from Vehicle, Neutrophils [1, 10]: 0%; % Decrease in Cell Counts from Vehicle, Platelets [1, 10]: 0%; % Max Body Weight Loss ([1]; pomalidomide 10 mg/kg IP QD days 1-14, alone or with filanesib 12.5 mg/kg IP days 1 and 2): 0%; AUC(0-t) [2, 12]: 3080 ng·h/mL; Cmax [2, 12]: 956 ng/mL; Tmax [2, 12]: 4.98 min |
| CON(C)C(=O)N1N=C(c2cc(F)ccc2F)S[C@@]1(CCCN)c1ccccc1.Cl [filanesib, (S)-2-(3-aminopropyl)-5-(2,5-difluorophenyl)-N-methoxy-N-methyl-2-phenyl-1,3,4-thiadiazole-3(2H)-carboxamide hydrochloride] | 0% | 8.9% | 0% | 6.6% | 34% | 69% | 9% | 0% | 0% | 0% | 0% | caused neutropenia | 50% | 5.3% | 0% | 3.7% | 0% | 8.0% | 0% | AUC(0-t) [2, 15]: 3090 ng·h/mL; Cmax [2, 15]: 1660 ng/mL; Tmax [2, 15]: 4.98 min; major dose limiting toxicity (DLT) [5]: neutropenia; predicted in vitro IC50 [6]: about 0.2 ng/mL |
